{"source": "paper PMC10803553", "about": "(Frontiers in Oncology, 2024)", "key": {"EML4-ALK (F1174S) V3a": {"molecular_target": "T1, EML4-ALK (F1174S) V3a (Homo sapiens, UniProt Q9HC35+Q9UM73, F1174S)", "T1 sequence (Q9HC35+Q9UM73 with tags, fused parts or gaps Q9UM73:F1174S)": "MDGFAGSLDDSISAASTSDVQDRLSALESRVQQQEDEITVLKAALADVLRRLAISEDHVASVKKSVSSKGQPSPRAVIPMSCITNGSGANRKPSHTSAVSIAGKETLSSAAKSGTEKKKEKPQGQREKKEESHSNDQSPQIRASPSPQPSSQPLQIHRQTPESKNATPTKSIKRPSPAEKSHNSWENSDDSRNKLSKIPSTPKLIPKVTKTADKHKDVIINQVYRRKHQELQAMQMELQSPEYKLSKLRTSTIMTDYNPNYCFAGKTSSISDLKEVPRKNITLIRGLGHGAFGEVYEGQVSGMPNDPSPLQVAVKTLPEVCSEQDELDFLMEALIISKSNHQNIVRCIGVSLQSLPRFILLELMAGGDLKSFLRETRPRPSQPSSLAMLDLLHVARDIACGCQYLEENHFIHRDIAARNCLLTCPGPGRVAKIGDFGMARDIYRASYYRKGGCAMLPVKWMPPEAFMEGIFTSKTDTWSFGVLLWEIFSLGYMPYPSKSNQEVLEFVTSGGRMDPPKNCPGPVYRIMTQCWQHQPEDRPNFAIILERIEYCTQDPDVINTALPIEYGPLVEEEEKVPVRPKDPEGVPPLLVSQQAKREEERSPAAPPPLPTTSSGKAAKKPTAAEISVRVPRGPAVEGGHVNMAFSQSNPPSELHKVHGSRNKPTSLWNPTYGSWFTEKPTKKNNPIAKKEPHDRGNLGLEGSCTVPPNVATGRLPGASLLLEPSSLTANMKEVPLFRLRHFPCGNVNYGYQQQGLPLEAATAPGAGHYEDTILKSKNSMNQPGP", "conditions": "NL20 cells, 0 nM to 1000 nM, pALK-Y1604 readout", "experimental": "(§1) SK-N-AS cells were transfected with Lipofectamine 3000 (Invitrogen, Carlsbad. CA) following the manufacturer’s instruction. […] After 24-36 hours culture, cells were treated with serial dilutions of the indicated inhibitors for 2 hours.\nCells were washed with ice-cold PBS prior to harvest in lysis buffer [25 mM of Tris-Cl, pH7.5, 150 mM of NaCl, 1% (v/v) Triton X-100, 1 mM of DTT, and protease inhibitor cocktail]. Cell lysates were clarified by centrifugation at 14,000 rpm for 15 minutes at 4°C. Samples were boiled in 1x SDS sample buffer and analyzed by immunoblotting. Enhanced chemiluminescence (ECL) and fluorescence blot images were taken with LI-COR Odyssey FC instrument and Image Studio 5.2 software (Lincoln, NE). […] The intensity of different protein bands was quantified with Image Studio Lite 5.2 software (Lincoln, NE). Ratios were shown either directly or normalized. […] GraphPad Prism 6.0 was used to calculate IC50 values by fitting data to a log (inhibitor concentration) vs. normalized response (variable slope) equation.\nWe therefore tested the sensitivity of these EML4-ALK mutants to ALK inhibitors. […] Dose-dependent ALK activity responses were followed with anti-pALK-Y1604 as readout.\nDose-dependent ALK activity responses were followed employing anti-pALK-Y1604 as readout."}, "EML4-ALK F1174S NSCLC": {"system": "EML4-ALK F1174S NSCLC", "conditions": "one NSCLC patient, after resistance to crizotinib; alectinib 6 months, ceritinib 3 months, brigatinib 1 month"}, "[1]": {"system": "wildtype and F1174S mutant EML4-ALK V3a and EML4-ALK V3b", "assay": "Dose-dependent pALK-Y1604 response to crizotinib or lorlatinib in NL20 cells, wildtype and F1174S mutant V3a/b (immunoblot, qualitative)", "assay_type": "cell-based, human", "conditions": "0 nM to 1000 nM, 2 hours"}, "EML4-ALK V1 mRNA": {"system": "EML4-ALK V1 mRNA", "assay": "RT-PCR for EML4-ALK V1 mRNA after ALK inhibition in DFCI032 cells", "assay_type": "cell-based, human", "conditions": "30 nM lorlatinib, 24 hours", "experimental": "Reverse transcription was performed with the SuperScript IV First-Strand Synthesis System (Invitrogen, Carlsbad. CA) following the manufacturer’s protocol. PCR was performed with DreamTaq Hot Start Green PCR Master Mix (ThermoScientific, Waltham, MA). The PCR primers used for ALK were 5’-[…]-3’ and 5’-[…]-3’; and the primers for Actin were 5’-[…]-3’ and 5’-[…]-3’.\nas §1"}}, "note": "Entries after “also recorded” stand apart in the source; their conditions may differ.", "data": [{"smiles": "Cc1cc(Nc2ncc(Cl)c(Nc3ccccc3S(=O)(=O)C(C)C)n2)c(OC(C)C)cc1C1CCNCC1", "note": "[ceritinib]", "values": [{"measurement": "sensitivity of EML4-ALK (F1174S) V3a to ALK inhibition relative to EML4-ALK V3a (qualitative)", "setting": "EML4-ALK (F1174S) V3a", "result": "more sensitive"}, {"measurement": "clinical response to ALK TKI", "setting": "EML4-ALK F1174S NSCLC", "result": "no detectable response"}]}, {"smiles": "COc1cc(N2CCC(N3CCN(C)CC3)CC2)ccc1Nc1ncc(Cl)c(Nc2ccccc2P(C)(C)=O)n1", "note": "[brigatinib]", "values": [{"measurement": "sensitivity of EML4-ALK (F1174S) V3a to ALK inhibition relative to EML4-ALK V3a (qualitative)", "setting": "EML4-ALK (F1174S) V3a", "result": "strongest effect; also recorded: more sensitive"}, {"measurement": "clinical response to ALK TKI", "setting": "EML4-ALK F1174S NSCLC", "result": "no detectable response"}]}, {"smiles": "C[C@H]1Oc2cc(cnc2N)-c2c(nn(C)c2C#N)CN(C)C(=O)c2ccc(F)cc21", "note": "[lorlatinib]", "values": [{"measurement": "inhibition of ALK-Y1604 phosphorylation (qualitative)", "setting": "[1]", "result": "superior inhibition effect"}, {"measurement": "ALK mRNA levels in response to treatment", "setting": "EML4-ALK V1 mRNA", "result": "decreased ALK mRNA levels"}]}]}
